Experiments:
Format in all cases: in vivo
[1] = system: German cockroaches (Blattella germanica); assay: Test Example 2: control test against German cockroaches, spray in chamber; conditions: adult German cockroaches; 1.5 mL sprayed; concentration [%]: nicofluprole 0.01, imiprothrin 0.01, cypermethrin 0.01, alone or mixed; 120 minutes after spraying
Description: (§1) Next, the usefulness of the inventive composition for controlling pests will be indicated by Test Examples. In general, the control effect to be expected when treated with a mixture obtained by mixing given two or three types of active ingredient compounds is determined by the Colby's calculation equation represented by the following [Equation 1] and [Equation 2].
(§2) [formula] • P: moribund and mortal rates (%) when treated with an active ingredient compound X in the concentration of m [ppm] • Q: moribund and mortal rates (%) when treated with an active ingredient compound Y in the concentration of n [ppm] • EA: moribund and mortal rates (%) when treated with an active ingredient compound X in the concentration of m [ppm] and an active ingredient compound Y in the concentration of n [ppm] (hereinafter referred to as expected value A) […]
Regarding the synergistic effect of three types of the active ingredient compounds, in case where the moribund and mortal rates (%) when actually treated with a mixture obtained by mixing three types of the active ingredient compounds exceed the expected value A calculated by using the moribund and mortal rates (%) when actually treated with a mixture obtained by mixing two types of the active ingredient compounds among three types thereof, and the moribund and mortal rates (%) calculated when actually treated the remaining one type of the active ingredient compound, or the expected value B (%) calculated from the moribund and mortal rates (%) when actually treated with each of three types of the active ingredient compounds alone, it was determined that the synergistic effect exists. […]

[2] = system: German cockroaches (Blattella germanica); assay: Test Example 1: control test against German cockroaches, spray in chamber (cup without filter paper); conditions: adult German cockroaches; 1.5 mL sprayed; concentration [%]: broflanilide 0.01, imiprothrin 0.01, cypermethrin 0.01, alone or mixed; 120 minutes after spraying
Description: as §1, §2
Regarding the synergistic effect of three types of the active ingredient compounds, in case where the moribund and mortal rates (%) when actually treated with a mixture obtained by mixing three types of the active ingredient compounds exceed the expected value A calculated by using the moribund and mortal rates (%) when actually treated with a mixture obtained by mixing two types of the active ingredient compounds among three types thereof, and the moribund and mortal rates (%) calculated when actually treated the remaining one type of the active ingredient compound, or the expected value B (%) calculated from the moribund and mortal rates (%) when actually treated with each of three types of the active ingredient compounds alone, it was determined that the synergistic effect exists.
In a plastic cup (diameter: 12.4 cm, height: 10.2 cm), ten adult German cockroaches (Blattella germanica) (five males and five females each) were released, and the plastic cup was placed in the center of the bottom of a box-shaped chamber (46 cm×46 cm×70 cm in height). […] After a lapse of 120 minutes from spraying, the number of dead and moribund individuals was examined, and moribund and mortal rates (%) were determined by the equation 3 below. […]

[3] = system: German cockroaches (Blattella germanica); assay: Test Example 5: control test against German cockroaches, spray in chamber; conditions: adult German cockroaches; 1.5 mL sprayed; concentration [%]: nicofluprole 0.01, imiprothrin 0.01, cyfluthrin 0.0002, alone or mixed; 45 minutes after spraying
Text: (§3) Next, the usefulness of the inventive composition for controlling pests will be indicated by Test Examples.
(§4) (hereinafter referred to as expected value A)
(§5) (hereinafter referred to as expected value B)
(§6) In a plastic cup (diameter: 12.4 cm, height: 10.2 cm) lined with a filter paper, ten adult German cockroaches (Blattella germanica) (five males and five females each) or eleven adult German cockroaches were released, and the plastic cup was placed in the center of the bottom of a box-shaped chamber (46 cm×46 cm×70 cm in height). From the height of 60 cm, 1.5 mL of each of formulations prepared by dissolving a single agent of any one of nicofluprole, imiprothrin and cyfluthrin, or a mixed agent of two or more thereof in a mixture of isopropyl alcohol and Isopar M at a mixing ratio of 1:9 was sprayed under a spray pressure of 0.041 MPa. After a lapse of 45 minutes from spraying, the number of dead and moribund individuals was examined, and moribund and mortal rates (%) were determined by the above equation 3. The test was performed through two replicates. Dead individuals are completely immobile individuals, and moribund individuals are individuals who cannot get up when turned on their backs.

[4] = system: German cockroaches (Blattella germanica); assay: Test Example 9: control test against German cockroaches, spray in chamber; conditions: adult German cockroaches; 1.5 mL sprayed; concentration [%]: broflanilide 0.02, imiprothrin 0.01, permethrin 0.05, alone or mixed; 420 minutes after spraying
Text: as §3, §4, §5
as §6, with “each)” for “each) or eleven adult German cockroaches”, “broflanilide,” for “nicofluprole,”, “permethrin,” for “cyfluthrin,”, “420” for “45”

C#CCN1CC(=O)N(COC(=O)[C@@H]2C(C=C(C)C)C2(C)C)C1=O (mixture of isomers) [Imiprothrin, imiprothrin]
Moribund and mortal rates [%] after 120 minutes [1]: 15% | Moribund and mortal rates [%] after 120 minutes [2]: 15% | Moribund and mortal rates [%] after 45 minutes [3]: 65% | Moribund and mortal rates [%] after 420 minutes [4]: 15%
